From patent publication US5834452A, “1- or 6-hydroxylated steroids” (Roussel Uclaf, priority 1996, dated 1998)

Legend:
[1] = system: endometrial proliferation (uterine lace); assay: Progestomimetic activity: endometrial transformation in the rabbit (Clauberg-McPhail test); assay type: in vivo; parameters: key to Maximal activity on the uterine lace (McPhail index) / Average uterine lace (McPhail Index): McPhail scale 0–4 with 0.5 steps (endometrial proliferation); settings: for Average uterine lace (McPhail Index): s/c, day 8 to day 11
Method: 2. --Determination of the progestomimetic activity of the products of the invention: Endometrial transformation in the rabbit. The animals used were impuberal female rabbits which were 40-45 days old. The animals were treated with estradiol (5 ug/0.2 ml/rabbit in solution of corn oil, 10% ethanol) by subcutaneous route from day 1 to day 5, then the product to be studied was administered from day 8 to day 11. On day 12, the animals were sacrificed and a median portion of each uterine cornua was removed from each animal and fixed in Bouin's liquid for histological study. After fixing, the samples were dehydrated, included, cut, mounted, the paraffin was removed and then the sample was stained with hemalum-eosin-saffron. […] Then, for each of the cornua, a semi-quantitative evaluation of the endometrial proliferation (uterine lace) was carried out by the McPhail scale from 0 to 4 with 0.5 intermediates and the two figures were averaged. Similarly, the degree of hypertrophy of the cornua was evaluated by the same scale. At higher magnification, morphological observations of the mucous membrane or the myometrium could possibly be formulated. The 1-OH metabolite (product A) was tested at doses of 10, 100, 1000 μg/kg by subcutaneous route as well as orally at a dose of 1000 μg/kg. The 6-OH metabolite (product B) was tested at doses of 100, 1000 and 10000 μg/kg subcutaneously. As a control, progesterone was administered at doses of 100 and 1000 μg/kg by subcutaneous route. The averages were produced for the uterine lace (McPhail Index).

[2] = molecular target: T1, Human estrogen receptor (HOR) (Homo sapiens, UniProt P03372); assay: Relative bond affinity (RBA), recombinant human estrogen receptor, charcoal dextran technique; assay type: binding; settings: 24 h at 0° C., Estradiol = 100
T1 construct: made in house; host or cells: SF9 insect cells (baculovirus), lysate supernatant
T1 sequence (P03372 1-595): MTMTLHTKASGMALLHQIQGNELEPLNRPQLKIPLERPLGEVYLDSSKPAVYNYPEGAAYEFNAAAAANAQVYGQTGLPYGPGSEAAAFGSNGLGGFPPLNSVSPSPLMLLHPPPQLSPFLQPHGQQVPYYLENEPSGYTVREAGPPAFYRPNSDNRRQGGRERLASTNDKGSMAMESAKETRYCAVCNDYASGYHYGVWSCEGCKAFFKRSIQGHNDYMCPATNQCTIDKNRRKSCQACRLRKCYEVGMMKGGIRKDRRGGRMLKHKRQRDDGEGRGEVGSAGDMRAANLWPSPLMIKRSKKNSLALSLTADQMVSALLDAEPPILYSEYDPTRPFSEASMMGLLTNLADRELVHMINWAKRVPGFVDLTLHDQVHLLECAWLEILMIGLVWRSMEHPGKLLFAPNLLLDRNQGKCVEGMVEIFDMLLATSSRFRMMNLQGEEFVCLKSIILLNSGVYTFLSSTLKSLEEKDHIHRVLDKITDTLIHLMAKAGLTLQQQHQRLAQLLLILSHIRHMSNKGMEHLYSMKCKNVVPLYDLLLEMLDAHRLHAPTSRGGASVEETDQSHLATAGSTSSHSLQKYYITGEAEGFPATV
Text: The human recombinant receptor (HGR, HPR, HAR, HMR, HER) was used.
Human estrogen receptor (HOR):
A supernatant of SF9 cells containing the recombinant human estrogen receptor was obtained by the process described above for the progestogen receptor using the cDNA fragment described in the expression vector HEGO by Tora et al (The EMBO Journal, (1989), Vol. 8 No. 7, p. 1981-1986) containing the region coding for the human estrogen receptor of "wild type" with a glycine in position 400. The cells obtained were lysed in the lysis buffer (1).
The supernatant was incubated at 0° C. for 24 hours with a constant concentration (T) of tritiated estradiol in the presence of increasing concentrations of either unlabelled estradiol (0-1000×10^-9 M), or the unlabelled product to be tested (1 to 25000×10^-9 M). The concentration of bound tritiated estradiol (B) was then measured in each incubate using the charcoal dextran adsorption technique.
Calculation of the relative bond affinity (RBA).
The following two curves were drawn: the percentage of bound tritiated hormone B/BO as a function of the logarithm of the concentration of unlabelled reference hormone or as a function of the logarithm of the concentration of unlabelled test product. The straight line of the following equation was determined: […]
The intersections of the straight line I50 and the curves allowed the evaluation of the concentrations of unlabelled reference hormone (CH) and of the unlabelled test product (CX) which inhibited by 50% the specific binding of the tritiated hormone on the receptor.
The relative bond affinity (RBA) of the test product was determined by the equation:
The RBA's of reference products Estradiol, Progesterone Dexamethasone, Testosterone and Aldosterone were arbitrarily taken as being equal to 100.

Row | RBA, Human estrogen receptor [2] | RBA, Human estrogen receptor ([2]; listed as product B) | RBA, Human estrogen receptor ([2]; listed as Trimegesterone) | SMILES | Average uterine lace (McPhail Index) ([1]; rabbit, 0,01 mg/kg) | Average uterine lace (McPhail Index) ([1]; rabbit, 0,1 mg/kg) | minimal effective dose ([1]; Oryctolagus cuniculus, rabbit, note on this test, read-out: Dose from which progestomimetic activity starts)
1 | 0 | zero | – | C[C@H](O)C(=O)[C@@]1(C)CC[C@H]2[C@@H]3C[C@@H](O)C4=CC(=O)CCC4=C3CC[C@@]21C [Product B, [6β, 17β-(S)]-6-hydroxy-17-(2-hydroxy-1-oxopropyl)-17-methyl-Δ^4,9-estradiene-3-one] | 1,4 | 2 | –
2 | 0 | – | zero | C[C@H](O)C(=O)[C@@]1(C)CC[C@H]2[C@@H]3CCC4=CC(=O)CCC4=C3CC[C@@]21C [Trimegestone, [17β-(S)]-17-(2-hydroxy-1-oxopropyl)-17-methyl-Δ^4,9-estradiene-3-one, reference compound] | – | – | 1 µg/kg
